Patent US7842719B2 (priority 2002, dated 2010)
Values after ≈ are worked out from the molar mass of the structure shown.

Legend:
[1] = test system: BVDV I cp; format: cell-based, Bovine viral diarrhea virus
[2] = test system: MDBK cells
[3] = test system: Non infected cells
[4] = test system: BDV; format: cell-based, Border disease virus
[5] = test system: BVDV-strain Pe515; format: cell-based, bovine viral diarrhea virus
[6] = test system: CMV AD-169; format: cell-based, human cytomegalovirus
[7] = test system: HIV-2 (ROD); format: cell-based, human immunodeficiency virus
[8] = test system: VZV YS; format: cell-based, varicella zoster virus
[9] = test system: VZV OKA; format: cell-based, varicella zoster virus
[10] = test system: VV; format: cell-based, vaccinia virus
[11] = test system: HSV-1 (KOS); format: cell-based, herpes simplex virus
[12] = test system: L1210/0; format: cell-based, murine
[13] = test system: FM3A/0; format: cell-based, murine
[14] = test system: CEM/0; format: cell-based, human
[15] = test system: Molt4/C8; format: cell-based, human
[16] = test system: CMV Davis; format: cell-based, human cytomegalovirus
[17] = test system: HIV-1 (IIIB); format: cell-based, human immunodeficiency virus
[18] = test system: HSV-2 (G); format: cell-based, herpes simplex virus

CO[C@H]1O[C@@H]2O[C@@]3(C)CC[C@H]4[C@H](C)CC[C@@H]([C@H]1C)[C@@]24OO3 [Artemether, artemether]
EC90 [1]: 0.16 µg/mL (≈ 0.536 µM) | cell toxicity [2]: stayed low | toxic concentration [3]: around 100 μg/ml | EC90 [4]: 0.8 µg/mL (≈ 2.68 µM) | EC50 BVDV [5]: 0.3 µg/mL (≈ 1.01 µM) | activity against BVDV [5]: strong anti-viral activity

C[C@@H]1CC[C@H]2[C@@H](C)C(=O)O[C@@H]3O[C@@]4(C)CC[C@@H]1[C@]32OO4 [Artemisinin, artemisinin]
EC50 CMV AD-169 (HEL) [6]: >50 µg/mL | EC50 HIV-2 (ROD) (CEM) [7]: >20 µg/mL | EC50 VZV (HEL) YS [8]: >50 µg/mL | EC50 VZV (HEL) OKA [9]: >50 µg/mL | EC50 VV (E6SM) [10]: 240 µg/mL (≈ 850 µM) | antiviral activity against VV [10]: showed antiviral activity | EC50 HSV-1 (KOS) (E6SM) [11]: >400 µg/mL | cell toxicity [2]: stayed low | activity against tumor cell line [12]: no interesting activity | activity against tumor cell line [13]: no interesting activity | activity against tumor cell line [14]: no interesting activity | activity against tumor cell line [15]: no interesting activity | EC50 CMV Davis (HEL) [16]: >50 µg/mL | EC50 HIV-1 (IIIB) (CEM) [17]: >20 µg/mL | EC50 HSV-2 (G) (E6SM) [18]: 240 µg/mL (≈ 850 µM) | antiviral activity against HSV-2 [18]: showed antiviral activity | EC50 BVDV [5]: 0.4 µg/mL (≈ 1.42 µM) | activity against BVDV [5]: strong anti-viral activity

C[C@H]1[C@H](OC(=O)CCC(=O)O)O[C@@H]2O[C@@]3(C)CC[C@H]4[C@H](C)CC[C@@H]1[C@@]24OO3 [Artensunate, artesunate]
MTC MDBK (minimal toxic concentration) [2]: 0.4 µg/mL | cell toxicity [2]: stayed low | EC50 BVDV [5]: 0.07 µg/mL (≈ 0.182 µM) | activity against BVDV [5]: strong anti-viral activity

C[C@H]1[C@@H](O)O[C@@H]2O[C@@]3(C)CC[C@H]4[C@H](C)CC[C@@H]1[C@@]24OO3 [Dihydroartemisinin, dihydroartemisinin]
MTC MDBK (minimal toxic concentration) [2]: 0.4 µg/mL | cell toxicity [2]: stayed low | EC50 BVDV [5]: 0.05 µg/mL (≈ 0.176 µM) | activity against BVDV [5]: strong anti-viral activity
